Assay results reported in US12295936B2, “Immunomodulating urea azalides” (Zoetis Services LLC, priority 2020, dated 2025).

System: BRD pathogens, M. haemolytica and P. multocida
Assay: MIC screening panel of BRD pathogens (antibacterial / non-antibacterial)
Conditions: read-out: antibacterial / non-antibacterial (MIC for the BRD pathogens)

Structure (SMILES)	MIC
CC[C@H]1OC(=O)[C@H](C)[C@@H](O[C@H]2C[C@@](C)(OC)[C@](O)(CCl)[C@H](C)O2)[C@H](C)[C@@H](O[C@@H]2O[C@H](C)C[C@H](N(C)C(=O)Nc3ccccc3)[C@H]2O)[C@](C)(O)C[C@@H](C)CN[C@H](C)[C@@H](O)[C@]1(C)O [Example E-1, 1-((2S,3R,4S,6R)-2-(((2R,3S,4R,5R,8R,10R,11R,12S,13S,14R)-13-(((2R,4R,5S,6S)-5-(chloromethyl)-5-hydroxy-4-methoxy-4,6-dimethyltetrahydro-2H-pyran-2-yl)oxy)-2-ethyl-3,4,10-trihydroxy-3,5,8,10,12,14-hexamethyl-15-oxo-1-oxa-6-azacyclopentadecan-11-yl)oxy)-3-hydroxy-6-methyltetrahydro-2H-pyran-4-yl)-1-methyl-3-phenylurea]	> 64 µg/mL
CC[C@H]1OC(=O)[C@H](C)[C@@H](O[C@H]2C[C@@](C)(OC)[C@](O)(CN=[N+]=[N-])[C@H](C)O2)[C@H](C)[C@@H](O[C@@H]2O[C@H](C)C[C@H](N(C)C(=O)Nc3ccccc3)[C@H]2O)[C@](C)(O)C[C@@H](C)CN[C@H](C)[C@@H](O)[C@]1(C)O [Example F-1, 1-((2S,3R,4S,6R)-2-(((2R,3S,4R,5R,8R,10R,11R,12S,13S,14R)-13-(((2R,4R,5S,6S)-5-(azidomethyl)-5-hydroxy-4-methoxy-4,6-dimethyltetrahydro-2H-pyran-2-yl)oxy)-2-ethyl-3,4,10-trihydroxy-3,5,8,10,12,14-hexamethyl-15-oxo-1-oxa-6-azacyclopentadecan-11-yl)oxy)-3-hydroxy-6-methyltetrahydro-2H-pyran-4-yl)-1-methyl-3-phenylurea]	> 64 µg/mL
CC[C@H]1OC(=O)[C@H](C)[C@@H](O[C@H]2C[C@@](C)(OC)[C@](O)(CC#N)[C@H](C)O2)[C@H](C)[C@@H](O[C@@H]2O[C@H](C)C[C@H](N(C)C(=O)Nc3ccccc3)[C@H]2O)[C@](C)(O)C[C@@H](C)CN[C@H](C)[C@@H](O)[C@]1(C)O [Example G-1, 1-((2S,3R,4S,6R)-2-(((2R,3S,4R,5R,8R,10R,11R,12S,13S,14R)-13-(((2R,4R,5S,6S)-5-(cyanomethyl)-5-hydroxy-4-methoxy-4,6-dimethyltetrahydro-2H-pyran-2-yl)oxy)-2-ethyl-3,4,10-trihydroxy-3,5,8,10,12,14-hexamethyl-15-oxo-1-oxa-6-azacyclopentadecan-11-yl)oxy)-3-hydroxy-6-methyltetrahydro-2H-pyran-4-yl)-1-methyl-3-phenylurea]	> 64 µg/mL
CC[C@H]1OC(=O)[C@H](C)[C@@H](O[C@H]2C[C@@](C)(OC)[C@](O)(CC#N)[C@H](C)O2)[C@H](C)[C@@H](O[C@@H]2O[C@H](C)C[C@H](N(C)C(=O)N(C)c3ccc(C(F)(F)F)cc3)[C@H]2O)[C@](C)(O)C[C@@H](C)CN[C@H](C)[C@@H](O)[C@]1(C)O [Example G-3, 1-((2S,3R,4S,6R)-2-(((2R,3S,4R,5R,8R,10R,11R,12S,13S,14R)-13-(((2R,4R,5S,6S)-5-(cyanomethyl)-5-hydroxy-4-methoxy-4,6-dimethyltetrahydro-2H-pyran-2-yl)oxy)-2-ethyl-3,4,10-trihydroxy-3,5,8,10,12,14-hexamethyl-15-oxo-1-oxa-6-azacyclopentadecan-11-yl)oxy)-3-hydroxy-6-methyltetrahydro-2H-pyran-4-yl)-1,3-dimethyl-3-(4-(trifluoromethyl)phenyl)urea]	> 64 µg/mL
CC[C@H]1OC(=O)[C@H](C)[C@@H](O[C@H]2C[C@@](C)(OC)[C@](O)(CN(CCN3CCOCC3)C(=O)NC3CC3)[C@H](C)O2)[C@H](C)[C@@H](O[C@@H]2O[C@H](C)C[C@H](N(C)C(=O)NC3CC3)[C@H]2O)[C@](C)(O)C[C@@H](C)CN[C@H](C)[C@@H](O)[C@]1(C)O [Example H-1, 3-cyclopropyl-1-((2S,3R,4S,6R)-2-(((2R,3S,4R,5R,8R,10R,11R,12S,13S,14R)-13-(((2R,4R,5S,6S)-5-((3-cyclopropyl-1-(2-morpholinoethyl)ureido)methyl)-5-hydroxy-4-methoxy-4,6-dimethyltetrahydro-2H-pyran-2-yl)oxy)-2-ethyl-3,4,10-trihydroxy-3,5,8,10,12,14-hexamethyl-15-oxo-1-oxa-6-azacyclopentadecan-11-yl)oxy)-3-hydroxy-6-methyltetrahydro-2H-pyran-4-yl)-1-methylurea]	> 64 µg/mL
CC[C@H]1OC(=O)[C@H](C)[C@@H](O[C@H]2C[C@@](C)(OC)[C@](O)(CN(C)C)[C@H](C)O2)[C@H](C)[C@@H](O[C@@H]2O[C@H](C)C[C@H](N(C)C(=O)Nc3ccccc3)[C@H]2O)[C@](C)(O)C[C@@H](C)CN[C@H](C)[C@@H](O)[C@]1(C)O [Example H-2, 1-((2S,3R,4S,6R)-2-(((2R,3S,4R,5R,8R,10R,11R,12S,13S,14R)-13-(((2R,4R,5S,6S)-5-((dimethylamino)methyl)-5-hydroxy-4-methoxy-4,6-dimethyltetrahydro-2H-pyran-2-yl)oxy)-2-ethyl-3,4,10-trihydroxy-3,5,8,10,12,14-hexamethyl-15-oxo-1-oxa-6-azacyclopentadecan-11-yl)oxy)-3-hydroxy-6-methyltetrahydro-2H-pyran-4-yl)-1-methyl-3-phenylurea]	> 64 µg/mL
CC[C@H]1OC(=O)[C@H](C)[C@@H](O[C@H]2C[C@@](C)(OC)[C@](O)(CN(CC)CC)[C@H](C)O2)[C@H](C)[C@@H](O[C@@H]2O[C@H](C)C[C@H](N(C)C(=O)Nc3ccccc3)[C@H]2O)[C@](C)(O)C[C@@H](C)CN[C@H](C)[C@@H](O)[C@]1(C)O [Example H-4, 1-((2S,3R,4S,6R)-2-(((2R,3S,4R,5R,8R,10R,11R,12S,13S,14R)-13-(((2R,4R,5S,6S)-5-((diethylamino)methyl)-5-hydroxy-4-methoxy-4,6-dimethyltetrahydro-2H-pyran-2-yl)oxy)-2-ethyl-3,4,10-trihydroxy-3,5,8,10,12,14-hexamethyl-15-oxo-1-oxa-6-azacyclopentadecan-11-yl)oxy)-3-hydroxy-6-methyltetrahydro-2H-pyran-4-yl)-1-methyl-3-phenylurea]	> 64 µg/mL
CCCNC[C@]1(O)[C@H](C)O[C@@H](O[C@H]2[C@H](C)[C@@H](O[C@@H]3O[C@H](C)C[C@H](N(C)C(=O)NCCN(C)C)[C@H]3O)[C@](C)(O)C[C@@H](C)CN[C@H](C)[C@@H](O)[C@](C)(O)[C@@H](CC)OC(=O)[C@@H]2C)C[C@@]1(C)OC [Example H-6, 3-(2-(dimethylamino)ethyl)-1-((2S,3R,4S,6R)-2-(((2R,3S,4R,5R,8R,10R,11R,12S,13S,14R)-2-ethyl-3,4,10-trihydroxy-13-(((2R,4R,5S,6S)-5-hydroxy-4-methoxy-4,6-dimethyl-5-((propylamino)methyl)tetrahydro-2H-pyran-2-yl)oxy)-3,5,8,10,12,14-hexamethyl-15-oxo-1-oxa-6-azacyclopentadecan-11-yl)oxy)-3-hydroxy-6-methyltetrahydro-2H-pyran-4-yl)-1-methylurea]	> 64 µg/mL
CCCN(C[C@]1(O)[C@H](C)O[C@@H](O[C@H]2[C@H](C)[C@@H](O[C@@H]3O[C@H](C)C[C@H](N(C)C(=O)Nc4ccc(F)cc4)[C@H]3O)[C@](C)(O)C[C@@H](C)CN[C@H](C)[C@@H](O)[C@](C)(O)[C@@H](CC)OC(=O)[C@@H]2C)C[C@@]1(C)OC)C(=O)Nc1ccc(F)cc1 [Example H-10, 1-((2S,3R,4S,6R)-2-(((2R,3S,4R,5R,8R,10R,11R,12S,13S,14R)-2-ethyl-13-(((2R,4R,5S,6S)-5-((3-(4-fluorophenyl)-1-propylureido)methyl)-5-hydroxy-4-methoxy-4,6-dimethyltetrahydro-2H-pyran-2-yl)oxy)-3,4,10-trihydroxy-3,5,8,10,12,14-hexamethyl-15-oxo-1-oxa-6-azacyclopentadecan-11-yl)oxy)-3-hydroxy-6-methyltetrahydro-2H-pyran-4-yl)-3-(4-fluorophenyl)-1-methylurea]	> 64 µg/mL
CCCN(C[C@]1(O)[C@H](C)O[C@@H](O[C@H]2[C@H](C)[C@@H](O[C@@H]3O[C@H](C)C[C@H](N(C)C(=O)Nc4ccc(C(F)(F)F)cc4)[C@H]3O)[C@](C)(O)C[C@@H](C)CN[C@H](C)[C@@H](O)[C@](C)(O)[C@@H](CC)OC(=O)[C@@H]2C)C[C@@]1(C)OC)C(=O)Nc1ccc(C(F)(F)F)cc1 [Example H-12, 1-((2S,3R,4S,6R)-2-(((2R,3S,4R,5R,8R,10R,11R,12S,13S,14R)-2-ethyl-3,4,10-trihydroxy-13-(((2R,4R,5S,6S)-5-hydroxy-4-methoxy-4,6-dimethyl-5-((1-propyl-3-(4-(trifluoromethyl)phenyl)ureido)methyl)tetrahydro-2H-pyran-2-yl)oxy)-3,5,8,10,12,14-hexamethyl-15-oxo-1-oxa-6-azacyclopentadecan-11-yl)oxy)-3-hydroxy-6-methyltetrahydro-2H-pyran-4-yl)-1-methyl-3-(4-(trifluoromethyl)phenyl)urea]	> 64 µg/mL
CCCNC[C@]1(O)[C@H](C)O[C@@H](O[C@H]2[C@H](C)[C@@H](O[C@@H]3O[C@H](C)C[C@H](N(C)C(=O)N(CC)c4ccccc4)[C@H]3O)[C@](C)(O)C[C@@H](C)CN[C@H](C)[C@@H](O)[C@](C)(O)[C@@H](CC)OC(=O)[C@@H]2C)C[C@@]1(C)OC [Example H-16, 1-ethyl-3-((2S,3R,4S,6R)-2-(((2R,3S,4R,5R,8R,10R,11R,12S,13S,14R)-2-ethyl-3,4,10-trihydroxy-13-(((2R,4R,5S,6S)-5-hydroxy-4-methoxy-4,6-dimethyl-5-((propylamino)methyl)tetrahydro-2H-pyran-2-yl)oxy)-3,5,8,10,12,14-hexamethyl-15-oxo-1-oxa-6-azacyclopentadecan-11-yl)oxy)-3-hydroxy-6-methyltetrahydro-2H-pyran-4-yl)-3-methyl-1-phenylurea]	> 64 µg/mL
CCCNC[C@]1(O)[C@H](C)O[C@@H](O[C@H]2[C@H](C)[C@@H](O[C@@H]3O[C@H](C)C[C@H](N(C)C(=O)N(c4ccccc4)C(C)C)[C@H]3O)[C@](C)(O)C[C@@H](C)CN[C@H](C)[C@@H](O)[C@](C)(O)[C@@H](CC)OC(=O)[C@@H]2C)C[C@@]1(C)OC [Example H-17, 1-((2S,3R,4S,6R)-2-(((2R,3S,4R,5R,8R,10R,11R,12S,13S,14R)-2-ethyl-3,4,10-trihydroxy-13-(((2R,4R,5S,6S)-5-hydroxy-4-methoxy-4,6-dimethyl-5-((propylamino)methyl)tetrahydro-2H-pyran-2-yl)oxy)-3,5,8,10,12,14-hexamethyl-15-oxo-1-oxa-6-azacyclopentadecan-11-yl)oxy)-3-hydroxy-6-methyltetrahydro-2H-pyran-4-yl)-3-isopropyl-1-methyl-3-phenylurea]	> 64 µg/mL
